Experimental data from ChEMBL document CHEMBL2311417, “Synthesis and biological evaluation of N-aryl-7-methoxybenzo[b]furo[3,2-d]pyrimidin-4-amines and their N-arylbenzo[b]thieno[3,2-d]pyrimidin-4-amine analogues as dual inhibitors of CLK1 and DYRK1A kinases” (Eur J Med Chem, 2013).

Columns and labels:
[1] = target: Dual specificity tyrosine-phosphorylation-regulated kinase 1A (Rattus norvegicus, UniProt Q63470); assay: Inhibition of rat recombinant DYRK1A-GST expressed in Escherichia coli using KKISGRLSPIMTEQ as substrate
[2] = Inhibition of porcine brain CK1delta/epsilon using RRKHAAIGpSAYSITA as substrate; parameters: species or system Sus scrofa
[3] = target: Glycogen synthase kinase-3 (Sus scrofa, UniProt B2LUN4+I6LNT8); assay: Inhibition of porcine brain GSK3alpha/beta using GS-1 as substrate
[4] = target: Cyclin-dependent kinase 5/CDK5 activator 1 (Homo sapiens, UniProt Q00535); assay: Inhibition of human recombinant CDK5/p25 after 30 mins by scintillation counting; type: protein-complex assay
Chain of Cyclin-dependent kinase 5/CDK5 activator 1 (Q00535 whole entry): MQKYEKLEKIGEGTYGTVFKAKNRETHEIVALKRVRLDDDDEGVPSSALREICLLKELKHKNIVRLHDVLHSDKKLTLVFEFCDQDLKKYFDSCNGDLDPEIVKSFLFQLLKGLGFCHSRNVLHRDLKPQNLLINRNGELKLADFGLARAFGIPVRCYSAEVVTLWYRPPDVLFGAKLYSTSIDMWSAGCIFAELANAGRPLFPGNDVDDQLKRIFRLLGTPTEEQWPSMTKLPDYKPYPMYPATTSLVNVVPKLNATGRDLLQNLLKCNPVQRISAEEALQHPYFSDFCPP
Chain of Cyclin-dependent kinase 5/CDK5 activator 1 (Q15078 whole entry, further chain): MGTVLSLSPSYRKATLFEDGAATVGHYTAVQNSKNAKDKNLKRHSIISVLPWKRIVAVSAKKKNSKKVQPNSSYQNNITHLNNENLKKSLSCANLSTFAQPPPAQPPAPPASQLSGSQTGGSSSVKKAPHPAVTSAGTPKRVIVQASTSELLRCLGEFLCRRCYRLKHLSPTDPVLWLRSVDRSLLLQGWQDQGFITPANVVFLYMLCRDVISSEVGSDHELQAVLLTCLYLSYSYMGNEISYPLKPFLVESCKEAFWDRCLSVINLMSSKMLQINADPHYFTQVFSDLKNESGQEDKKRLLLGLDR

[5] = target: Dual specificity protein kinase CLK1 (Homo sapiens, UniProt P49759)
Chain of Dual specificity protein kinase CLK1 (P49759 whole entry): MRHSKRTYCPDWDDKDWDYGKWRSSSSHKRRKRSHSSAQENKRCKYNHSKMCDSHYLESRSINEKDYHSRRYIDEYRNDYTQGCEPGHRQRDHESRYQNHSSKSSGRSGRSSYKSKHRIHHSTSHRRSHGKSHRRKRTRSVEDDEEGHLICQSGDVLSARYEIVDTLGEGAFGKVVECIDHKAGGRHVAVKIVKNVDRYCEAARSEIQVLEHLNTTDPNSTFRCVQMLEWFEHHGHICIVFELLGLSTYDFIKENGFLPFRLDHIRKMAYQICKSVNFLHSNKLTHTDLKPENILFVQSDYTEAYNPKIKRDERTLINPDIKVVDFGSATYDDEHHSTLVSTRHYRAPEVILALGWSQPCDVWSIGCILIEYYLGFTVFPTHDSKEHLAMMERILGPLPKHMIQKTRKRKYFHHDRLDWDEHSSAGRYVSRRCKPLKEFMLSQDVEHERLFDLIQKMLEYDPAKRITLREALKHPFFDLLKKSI

SMILES	IC50 [1] [µM]	IC50 [2] [µM]	IC50 [3] [µM]	IC50 [4] [µM]	IC50 [5] [µM]
COc1ccc2c(c1)sc1c(Nc3ccc(F)cc3F)ncnc12	0.93	3.9	> 10	> 10	1.6
COc1ccc2c(c1)oc1c(Nc3ccc(OC)c(OC)c3)ncnc12	> 10	> 10	> 10	> 10	> 10
COc1ccc2c(c1)oc1c(Nc3ccc(F)cc3F)ncnc12	> 10	> 10	> 10	> 10	> 10
COc1ccc2c(c1)oc1c(Nc3ccc4c(c3)OCCO4)ncnc12	> 10	> 10	> 10	> 10	> 10
COc1ccc2c(c1)sc1c(Nc3ccc(C)cc3)ncnc12	> 10	> 10	> 10	> 10	> 10
COc1ccc2c(c1)sc1c(Nc3ccc(Cl)cc3F)ncnc12	> 10	> 10	> 10	> 10	> 10
COc1ccc2c(c1)sc1c(Nc3cccc(C(F)(F)F)c3)ncnc12	> 10	> 10	> 10	> 10	> 10
COc1ccc2c(c1)sc1c(Nc3cc(Cl)cc(Cl)c3)ncnc12	8.1	> 10	> 10	> 10	> 10
COc1ccc2c(c1)[nH]c1c(C)nccc12 [HARMINE]		1.5	> 10		
COc1ccc2c(c1)oc1c(Nc3ccc(Br)cc3)ncnc12	> 10	> 10	> 10	> 10	> 10
COc1ccc2c(c1)sc1c(Nc3ccc(Cl)cc3Cl)ncnc12	1.6	> 10	> 10	> 10	> 10
COc1ccc2c(c1)oc1c(N)ncnc12	1.1	1.9	> 10	> 10	0.41
COc1ccc2c(c1)oc1c(Nc3cc(Cl)cc(Cl)c3)ncnc12	> 10	> 10	> 10	> 10	> 10
COc1ccc2c(c1)sc1c(Nc3ccc4c(c3)OCCO4)ncnc12	0.5	> 10	> 10	> 10	0.68
COc1ccc2c(c1)oc1c(Nc3ccc(Cl)cc3Cl)ncnc12	3.1	> 10	> 10	> 10	> 10
COc1ccc2c(c1)oc1c(Nc3ccc4c(c3)OCO4)ncnc12	2.8	> 10	> 10	> 10	2
COc1ccc2c(c1)sc1c(Nc3cccc(Cl)c3)ncnc12	> 10	> 10	> 10	> 10	> 10
COc1ccc2c(c1)sc1c(Nc3cc(OC)c(OC)c(OC)c3)ncnc12	> 10	> 10	> 10	> 10	> 10
COc1ccc2c(c1)oc1c(Nc3ccc(Cl)cc3)ncnc12	> 10	> 10	> 10	> 10	> 10
COc1ccc2c(c1)oc1c(Nc3ccc(C)cc3)ncnc12	> 10	> 10	> 10	> 10	
COc1ccc2c(c1)sc1c(Nc3ccc(N(C)C)cc3)ncnc12	0.66	> 10	> 10	> 10	0.79
COc1ccc2c(c1)sc1c(Nc3ccc(Br)cc3F)ncnc12	0.71	> 10	> 10	> 10	2.3
COc1ccc(Nc2ncnc3c2sc2cc(OC)ccc23)c(F)c1	0.71	> 10	> 10	> 10	> 10
COc1ccc2c(c1)sc1c(Nc3ccc(Cl)cc3)ncnc12	> 10	> 10	> 10	> 10	> 10
COc1ccc2c(c1)sc1c(Nc3ccc(F)c(Cl)c3)ncnc12	> 10	> 10	> 10	> 10	> 10
COc1ccc(Nc2ncnc3c2sc2cc(OC)ccc23)cc1	7.1	> 10	> 10	> 10	> 10
COc1ccc2c(c1)oc1c(Nc3ccccc3Cl)ncnc12	3.2	> 10	> 10	> 10	4.2

SMILES	IC50 [1] [µM]	IC50 [2] [µM]	IC50 [3] [µM]	IC50 [4] [µM]	IC50 [5] [µM]
COc1cc(Nc2ncnc3c2sc2cc(OC)ccc23)cc(OC)c1	3.9	> 10	> 10	> 10	5.1
COc1ccc2c(c1)sc1c(Nc3ccc(F)cc3)ncnc12	> 10	> 10	> 10	> 10	> 10
COc1cc(Nc2ncnc3c2oc2cc(OC)ccc23)cc(OC)c1	> 10	> 10	> 10	> 10	
COc1ccc2c(c1)sc1c(N)ncnc12	> 10	> 10	> 10	> 10	> 10
COc1ccc2c(c1)oc1c(Nc3ccc(N(C)C)cc3)ncnc12	> 10	> 10	> 10	> 10	> 10
COc1ccc2c(c1)oc1c(Nc3ccc(F)cc3)ncnc12	> 10	> 10	> 10	> 10	> 10
COc1ccc2c(c1)oc1c(Nc3ccc(Br)cc3F)ncnc12	> 10	> 10	> 10	> 10	> 10
COc1ccc2c(c1)oc1c(Nc3cccc(Cl)c3)ncnc12	> 10	> 10	> 10	> 10	> 10
COc1ccc2c(c1)sc1c(Nc3ccc(Cl)c(Cl)c3)ncnc12	2	> 10	> 10	> 10	6.1
COc1ccc2c(c1)sc1c(Nc3ccc(OC)c(OC)c3)ncnc12	0.93	> 10	> 10	> 10	2.8
COc1ccc(Nc2ncnc3c2oc2cc(OC)ccc23)c(F)c1	> 10	> 10	> 10	> 10	> 10
COc1ccc2c(c1)sc1c(Nc3ccccc3)ncnc12	> 10	> 10	> 10	> 10	> 10
COc1ccc2c(c1)oc1c(Nc3cccc(C)c3)ncnc12	> 10	> 10	> 10	> 10	> 10
COc1ccc2c(c1)oc1c(Nc3ccc(Cl)cc3F)ncnc12	> 10	> 10	> 10	> 10	> 10
COc1ccc2c(c1)sc1c(Nc3ccc(Br)cc3)ncnc12	> 10	> 10	> 10	> 10	> 10
COc1ccc2c(c1)oc1c(Nc3ccc(F)c(Cl)c3)ncnc12	> 10	> 10	> 10	> 10	> 10
COc1ccc2c(c1)oc1c(Nc3ccc(Cl)c(Cl)c3)ncnc12	> 10	> 10	> 10	> 10	> 10
COc1ccc(Nc2ncnc3c2oc2cc(OC)ccc23)cc1	0.88	> 10	> 10	> 10	1.5
COc1ccc2c(c1)sc1c(Nc3cccc(C)c3)ncnc12	6.1	> 10	> 10	> 10	> 10
COc1ccc2c(c1)oc1c(Nc3ccccc3)ncnc12	> 10	> 10	> 10	> 10	> 10
COc1ccc2c(c1)oc1c(Nc3cccc(C(F)(F)F)c3)ncnc12	> 10	> 10	> 10	> 10	> 10
COc1ccc2c(c1)oc1c(Nc3cc(OC)c(OC)c(OC)c3)ncnc12	> 10	> 10	> 10	> 10	> 10
COc1ccc2c(c1)sc1c(Nc3ccccc3Cl)ncnc12	0.61	> 10	> 10	> 10	3.1
COc1ccc2c(c1)oc1c(Nc3ccc(C#N)cc3)ncnc12	> 10	> 10	> 10	> 10	> 10
COc1ccc2c(c1)sc1c(Nc3ccc4c(c3)OCO4)ncnc12	> 10	> 10	> 10	> 10	> 10
COc1ccc2c(c1)sc1c(Nc3ccc(C#N)cc3)ncnc12	2.6	> 10	> 10	> 10	6.8
